Laboratory results taken from patent US20230265116A1, “DEGRADATION OF (EGFR) BY CONJUGATION OF EGFR INHIBITORS WITH E3 LIGASE LIGAND AND METHODS OF USE” (BEIGENE, LTD., priority 2020, published 2023).

Columns and labels:
Type in all cases: cell-based
[1] = system: EGFR Del19/T790M/C797S (H1975-clone #28); experiment: EGFR degradation HTRF assay, H1975-clone #28 DTC cells; settings: H1975 # 28 DTC cells; for DC50: EGFR degradation, IC50 (DC50) from curve fit, read-out: DC50(nM) H1975 # 28 DTC; for Dmax (%) H1975 # 28 DTC: maximum percentage of inhibition (degradation)
How it was run: (§1)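 Engineered H1975 lines (lentiviral mutant EGFR, endogenous EGFR knocked out, single-clone verified); 16h compound, 37° C., 5% CO2, 0.2% DMSO; 8-point 5-fold series from 10 uM final. HTRF lysate read; % degradation vs DMSO, four-parameter fit → DC50, Dmax.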

[2] = system: EGFR Del19/C797S (H1975-clone #23); experiment: EGFR degradation HTRF assay, H1975-clone #23 DC cells; settings: 16h treatment; for H1975 #23 DC Dmax (%): maximum percentage of degradation; for DC50: H1975 #23 DC, read-out: H1975 #23 DC DC50
How it was run: as §1

[3] = target: T1, EGFR L858R/C797S (BaF3 LC cells) (Homo sapiens, UniProt P00533, C797S/L858R); experiment: EGFR degradation HTRF assay, BaF3 LC cells; settings: BaF3 LC, 16h treatment; for Dmax: maximum percentage of degradation, read-out: BaF3 LC Dmax (%); for DC50: read-out: BaF3 LC DC50
T1 construct: expressed in transfected cells; host or cells: BaF3
T1 sequence (P00533 25-1210 C797S/L858R): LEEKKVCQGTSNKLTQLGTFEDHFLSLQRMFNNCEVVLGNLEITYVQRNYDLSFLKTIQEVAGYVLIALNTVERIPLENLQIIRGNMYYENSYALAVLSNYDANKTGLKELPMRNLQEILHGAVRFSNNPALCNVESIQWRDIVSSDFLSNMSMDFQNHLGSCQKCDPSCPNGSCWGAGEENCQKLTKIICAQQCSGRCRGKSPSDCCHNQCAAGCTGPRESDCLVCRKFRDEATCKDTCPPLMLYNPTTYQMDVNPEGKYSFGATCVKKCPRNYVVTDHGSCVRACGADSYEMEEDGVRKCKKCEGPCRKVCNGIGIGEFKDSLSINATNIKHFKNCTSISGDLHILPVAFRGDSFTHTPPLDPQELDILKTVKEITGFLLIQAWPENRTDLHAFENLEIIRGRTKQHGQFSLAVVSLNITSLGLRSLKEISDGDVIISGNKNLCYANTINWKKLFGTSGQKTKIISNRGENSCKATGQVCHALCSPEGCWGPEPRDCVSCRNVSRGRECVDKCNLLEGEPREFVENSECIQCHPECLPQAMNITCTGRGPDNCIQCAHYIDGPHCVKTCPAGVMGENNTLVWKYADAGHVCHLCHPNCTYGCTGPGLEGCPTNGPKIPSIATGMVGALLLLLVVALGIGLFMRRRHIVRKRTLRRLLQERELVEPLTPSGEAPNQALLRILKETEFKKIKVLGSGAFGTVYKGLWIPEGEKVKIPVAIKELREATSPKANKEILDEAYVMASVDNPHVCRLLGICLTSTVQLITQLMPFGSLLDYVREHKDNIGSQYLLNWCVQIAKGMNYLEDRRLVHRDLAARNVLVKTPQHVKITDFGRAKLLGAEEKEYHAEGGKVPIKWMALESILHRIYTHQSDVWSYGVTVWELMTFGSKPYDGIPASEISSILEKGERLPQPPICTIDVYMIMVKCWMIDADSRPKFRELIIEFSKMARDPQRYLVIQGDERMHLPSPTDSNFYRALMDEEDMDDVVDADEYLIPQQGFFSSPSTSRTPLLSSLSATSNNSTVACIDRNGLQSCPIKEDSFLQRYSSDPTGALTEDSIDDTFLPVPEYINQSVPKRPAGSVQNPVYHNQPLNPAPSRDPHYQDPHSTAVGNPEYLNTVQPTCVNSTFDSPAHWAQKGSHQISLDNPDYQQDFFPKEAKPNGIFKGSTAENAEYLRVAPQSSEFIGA

[4] = target: T2, EGFR L858R/T790M/C797S (BaF3-LTC cells) (Homo sapiens, UniProt P00533, C797S/L858R/T790M); experiment: EGFR degradation HTRF assay, BaF3-LTC cells; settings: BaF3-LTC cells; for DC50: EGFR degradation, IC50 (DC50) from curve fit, read-out: DC50(nM) BaF3-LTC; for Dmax: read-out: Dmax (%) BaF3-LTC
T2 construct: expressed in transfected cells; host or cells: BaF3
T2 sequence (P00533 25-1210 T790M/C797S/L858R): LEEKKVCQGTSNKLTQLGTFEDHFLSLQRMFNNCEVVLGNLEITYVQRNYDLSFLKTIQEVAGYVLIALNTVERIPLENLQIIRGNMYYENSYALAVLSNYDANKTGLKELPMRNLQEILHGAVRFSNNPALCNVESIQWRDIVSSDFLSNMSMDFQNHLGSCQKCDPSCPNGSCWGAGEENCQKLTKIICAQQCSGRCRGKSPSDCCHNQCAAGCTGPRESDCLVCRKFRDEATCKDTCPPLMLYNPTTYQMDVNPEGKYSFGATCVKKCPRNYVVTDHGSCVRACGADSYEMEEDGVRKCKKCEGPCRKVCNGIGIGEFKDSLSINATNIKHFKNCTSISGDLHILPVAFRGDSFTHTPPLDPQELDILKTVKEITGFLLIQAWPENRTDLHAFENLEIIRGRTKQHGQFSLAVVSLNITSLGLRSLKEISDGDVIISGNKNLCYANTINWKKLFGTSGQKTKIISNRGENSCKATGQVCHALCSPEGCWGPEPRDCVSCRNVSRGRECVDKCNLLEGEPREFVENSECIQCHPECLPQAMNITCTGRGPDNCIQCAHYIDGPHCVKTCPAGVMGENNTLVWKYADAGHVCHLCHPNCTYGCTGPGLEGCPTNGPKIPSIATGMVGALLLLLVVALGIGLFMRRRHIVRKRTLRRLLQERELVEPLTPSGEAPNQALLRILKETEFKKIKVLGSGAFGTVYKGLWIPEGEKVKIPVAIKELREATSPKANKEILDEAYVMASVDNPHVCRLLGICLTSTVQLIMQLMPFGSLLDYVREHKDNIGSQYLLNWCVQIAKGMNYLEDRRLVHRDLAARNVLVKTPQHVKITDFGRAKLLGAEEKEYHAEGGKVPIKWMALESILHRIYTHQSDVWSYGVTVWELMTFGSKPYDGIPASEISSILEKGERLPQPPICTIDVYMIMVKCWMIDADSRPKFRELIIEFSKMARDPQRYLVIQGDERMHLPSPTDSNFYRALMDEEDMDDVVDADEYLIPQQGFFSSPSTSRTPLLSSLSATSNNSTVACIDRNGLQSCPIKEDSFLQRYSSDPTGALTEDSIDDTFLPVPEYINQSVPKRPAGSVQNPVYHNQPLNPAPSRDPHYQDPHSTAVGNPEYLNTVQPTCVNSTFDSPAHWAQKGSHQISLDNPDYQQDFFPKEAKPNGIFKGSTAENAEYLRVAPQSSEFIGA
How it was run: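 EGFR remaining after a 16 h, 37 °C exposure (8 doses, 5-fold steps from 10 uM final, 0.2% DMSO) was quantified by HTRF antibodies in cell lysate. Percent inhibition relative to DMSO control was fitted by four-parameter logistic to give DC50; Dmax denotes maximal degradation.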

[5] = maximum percentage of inhibition (degradation)

Row | Compound | DC50 [1] [nM] | Dmax (%) H1975 # 28 DTC [1] [%] | H1975 #23 DC Dmax (%) [2] [%] | DC50 [2] [nM] | Dmax [3] [%] | DC50 [3] [nM] | DC50 [4] [nM] | Dmax [4, 5] [%] | Dmax (%) BaF3-LTC [4, 5] [%]
1 | CCc1cc(Nc2ncc(Br)c(Nc3ccc4c(=O)n(C)ncc4c3P(C)(C)=O)n2)c(OC)cc1N1CCC(N2CCN(C(=O)[C@@H]3CCN(c4cc(F)c([C@H]5CCC(=O)NC5=O)c(F)c4)C3)CC2)CC1 [Example 528, (R)-3-(4-((R)-3-(4-(1-(4-((5-bromo-4-((5-(dimethylphosphoryl)-2-methyl-1-oxo-1,2-dihydrophthalazin-6-yl)amino)pyrimidin-2-yl)amino)-2-ethyl-5-methoxyphenyl)piperidin-1)piperazine-1-carbonyl)pyrrolidin-1-yl)2,6-difluorophenyl)piperidine-2,6-dione] | 0.632 | 86.11 | 54.87 | 1.58 | 83.9 | 14.9 | 3.63 | 97.3 | –
2 | CCOc1cc(N2CCC(N3CCN(C(=O)[C@@H]4CCN(c5cc(F)c([C@H]6CCC(=O)NC6=O)c(F)c5)C4)CC3)CC2)c(CC)cc1Nc1ncc(Br)c(Nc2ccc3nc(C)ccc3c2P(C)(C)=O)n1 [Example 531, (R)-3-(4-((R)-3-(4-(1-(4-((5-bromo-4-((5-(dimethylphosphoryl)-2-methylquinolin-6-yl)amino)pyrimidin-2-yl)amino)-5-ethoxy-2-ethylphenyl)piperidin-4-yl)piperazine-1-carbonyl)pyrrolidin-1-yl)-2,6-difluorophenyl)piperidine-2,6-dione] | 1.55 | 74.06 | 53.36 | 9.42 | 83.5 | 51.8 | 7.03 | 96.4 | –
3 | CCOc1cc(N2CCC(N3CCN(CCc4ccc5c(c4)oc(=O)n5C4CCC(=O)NC4=O)CC3)CC2)c(CC)cc1Nc1ncc(Br)c(Nc2ccc3nc(C)ccc3c2P(C)(C)=O)n1 (stereo not drawn) [Example 532] | 0.642 | 70.91 | 52.49 | 0.591 | 88.1 | 3.84 | 2.96 | – | 95.58
4 | CCc1ccc2c(P(C)(C)=O)c(Nc3nc(Nc4cc(CC)c(N5CCC(N6CCN(C(=O)[C@@H]7CCN(c8cc(F)c([C@H]9CCC(=O)NC9=O)c(F)c8)C7)CC6)CC5)cc4OC)ncc3Br)cc(F)c2n1 [Example 533, (R)-3-(4-((R)-3-(4-(1-(4-((5-bromo-4-((5-(dimethylphosphoryl)-2-ethyl-8-fluoroquinolin-6-yl)amino)pyrimidin-2-yl)amino)-2-ethyl-5-methoxyphenyl)piperidin-4-yl)piperazine-1-carbonyl)pyrrolidin-1-yl)-2,6-difluorophenyl)piperidine-2,6-dione] | 1.18 | 83.78 | 73.47 | 7.47 | 90.8 | 28.8 | 5.05 | 97.2 | –
5 | CCOc1cc(N2CCC(N3CCN(CCc4cc(F)c([C@H]5CCC(=O)NC5=O)c(F)c4)CC3)CC2)c(CC)cc1Nc1ncc(Br)c(Nc2cc(F)c3nc(C)ccc3c2P(C)(C)=O)n1 [Example 534, (R)-3-(4-(2-(4-(1-(4-((5-bromo-4-((5-(dimethylphosphoryl)-8-fluoro-2-methylquinolin-6-yl)amino)pyrimidin-2-yl)amino)-5-ethoxy-2-ethylphenyl)piperidin-4-yl)piperazin-1-yl)ethyl)-2,6-difluorophenyl)piperidine-2,6-dione] | 0.749 | 83.48 | 80.71 | 2.16 | 90.2 | 10.2 | 4.2 | 93.7 | –
6 | CCc1ncc2c(P(C)(C)=O)c(Nc3nc(Nc4cc(CC)c(N5CCC(N6CCN(C(=O)[C@@H]7CCN(c8cc(F)c([C@H]9CCC(=O)NC9=O)c(F)c8)C7)CC6)CC5)cc4OC)ncc3Br)ccc2n1 [Example 549, (R)-3-(4-((R)-3-(4-(1-(4-((5-bromo-4-((5-(dimethylphosphoryl)-2-ethylquinazolin-6-yl)amino)pyrimidin-2-yl)amino)-2-ethyl-5-methoxyphenyl)piperidin-4-yl)piperazine-1-carbonyl)pyrrolidin-1-yl)-2,6-difluorophenyl)piperidine-2,6-dione] | 0.601 | 88.85 | 63.66 | 2.96 | – | 1.59 | 3.1 | – | –
7 | CCOc1cc(N2CCC(N3CCN(CC4CN(c5cc(F)c([C@H]6CCC(=O)NC6=O)c(F)c5)C4)CC3)CC2)c(CC)cc1Nc1ncc(Br)c(Nc2ccc3c(=O)n(CC)ncc3c2P(C)(C)=O)n1 [Example 551, (R)-3-(4-(3-((4-(1-(4-((5-bromo-4-((5-(dimethylphosphoryl)-2-ethyl-1-oxo-1,2-dihydrophthalazin-6-yl)amino)pyrimidin-2-yl)amino)-5-ethoxy-2-ethylphenyl)piperidin-4-yl)piperazin-1-yl)methyl)azetidin-1-yl)-2,6-difluorophenyl)piperidine-2,6-dione] | 1.62 | 90.57 | 84.14 | 5.64 | – | 46.5 | 6.19 | – | –
8 | CCOc1cc(N2CCC(N3CCN(CCc4cc5oc(=O)n(C6CCC(=O)NC6=O)c5cc4C)CC3)CC2)c(CC)cc1Nc1ncc(Br)c(Nc2cc(F)c3nc(CC)ccc3c2P(C)(C)=O)n1 (stereo not drawn) [Example 553, 3-(6-(2-(4-(1-(4-((5-bromo-4-((5-(dimethylphosphoryl)-2-ethyl-8-fluoroquinolin-6-yl)amino)pyrimidin-2-yl)amino)-5-ethoxy-2-ethylphenyl)piperidin-4-yl)piperazin-1-yl)ethyl)-5-methyl-2-oxobenzo[d]oxazol-3(2H)-yl)piperidine-2,6-dione] | 0.712 | 61.54 | 53.56 | 0.828 | 93.3 | 1.23 | 2.49 | 90.7 | –
9 | CCOc1cc(N2CCC(N3CCN(CCc4c(F)ccc5c4n(CC)c(=O)n5C4CCC(=O)NC4=O)CC3)CC2)c(CC)cc1Nc1ncc(Br)c(Nc2ccc3c(=O)n(CC)ncc3c2P(C)(C)=O)n1 (stereo not drawn) [Example 559, 3-(4-(2-(4-(1-(4-((5-bromo-4-((5-(dimethylphosphoryl)-2-ethyl-1-oxo-1,2-dihydrophthalazin-6-yl)amino)pyrimidin-2-yl)amino)-5-ethoxy-2-ethylphenyl)piperidin-4-yl)piperazin-1-yl)ethyl)-3-ethyl-5-fluoro-2-oxo-2,3-dihydro-1H-benzo[d]imidazol-1-yl)piperidine-2,6-dione] | 0.364 | 80.93 | 73.67 | 5.38 | – | 26.9 | 12 | – | –
10 | CCOc1cc(N2CCC(N3CCN(CCc4cccc5c4C4(CC4)C(=O)N5C4CCC(=O)NC4=O)CC3)CC2)c(CC)cc1Nc1ncc(Br)c(Nc2ccc3nc(CC)ccc3c2P(C)(C)=O)n1 (stereo not drawn) [Example 571, 3-(4′-(2-(4-(1-(4-((5-bromo-4-((5-(dimethylphosphoryl)-2-ethylquinolin-6-yl)amino)pyrimidin-2-yl)amino)-5-ethoxy-2-ethylphenyl)piperidin-4-yl)piperazin-1-yl)ethyl)-2′-oxospiro[cyclopropane-1,3′-indolin]-1′-yl)piperidine-2,6-dione] | 0.946 | 77.08 | 75.83 | 3.05 | – | 13.2 | 3.49 | – | –
11 | CCOc1cc(N2CCC(N3CCN(CCc4cccc5c4C(C)(C)C(=O)N5C4CCC(=O)NC4=O)CC3)CC2)c(CC)cc1Nc1ncc(Br)c(Nc2ccc3nc(CC)ccc3c2P(C)(C)=O)n1 (stereo not drawn) [Example 572, 3-(4-(2-(4-(1-(4-((5-bromo-4-((5-(dimethylphosphoryl)-2-ethylquinolin-6-yl)amino)pyrimidin-2-yl)amino)-5-ethoxy-2-ethylphenyl)piperidin-4-yl)piperazin-1-yl)ethyl)-3,3-dimethyl-2-oxoindolin-1-yl)piperidine-2,6-dione] | 1.81 | 83.86 | 69.16 | 4.74 | – | 3.8 | 3.21 | – | –
